# Experimental data reported in patent US8653233B2, “Compositions and methods for preventing or treating cancer” (University of Nebraska Medical Center, priority 2003, dated 2014).
# Where no end group is shown, it is not given here.
# Test system: Panc02.MUC1 tumor cells
# Assay: MUC1 cytoplasmic tail peptide vaccination and Panc02.MUC1 tumor challenge
sequence,measurement,setting,value
CQCRRKNYGQLDIFPARDTYHPMSEYPTYH (cysteine pairing not given here) [SEQ ID NO:47],survival,"MUC1.Tg mice, three s.c. vaccinations at seven day intervals, Panc02.MUC1 challenge 10 days after final, vs control peptide or nonvaccinated, p<0.05",significant increase in survival
same,autoimmunity in organs,"necropsy and histology, vaccinated MUC1.Tg mice challenged with Panc02.MUC1",no evidence of autoimmunity
